# Source: US20080234368A9, “Therapeutic compositions and methods of use” (Trustees of Dartmouth College, priority 1998, published 2008)
# System: COX-2
# Test: TPA-induced COX-2 in 18Co cells
# Assay type: cell-based, human
# From the text: These cells were selected because of the importance of stromal cell COX-2 in colon carcinogenesis (Oshima et al., 1996). […] Although CDDO effectively blocks the induction of COX-2 by agents such as IFN-γ, LPS, TNF-α, and IL-1, CDDO is ineffective when TPA is used as the inducer of COX-2. This has been seen in 18Co cells, as well as in the human mammary epithelial cell line, 184B5/HER (Zhai et al., 1993).
structure (smiles),measurement,value
"CC1(C)CC[C@]2(C(=O)O)CC[C@]3(C)[C@H](C(=O)C=C4[C@@]5(C)C=C(C#N)C(=O)C(C)(C)[C@@H]5CC[C@]43C)[C@@H]2C1 [Compound 6, 2-cyano-3,12-dioxoolean-1,9-dien-28-oic acid]",blocking of COX-2 induction with TPA as inducer,ineffective
